According to patent publication US8956677B2, “High-potency sweetener composition with glucosamine and compositions sweetened therewith” (The Coca-Cola Company, priority 2005, dated 2015):

Test: Sensory evaluation of sweetness linger and sugar-like taste by a panel of experts
Type: in vivo
Parameters: key: 0=no sweetness linger; 1=very slight sweetness linger; 2=slight sweetness linger; 3=moderate sweetness linger; 4=moderately high sweetness linger; 5=high sweetness linger
Description: As used herein, the phrases “sugar-like characteristic,” “sugar-like taste,” “sugar-like sweet,” “sugary,” and “sugar-like” are synonymous. […] These characteristics are dimensions in which the taste of sucrose is different from the tastes of natural and synthetic high-potency sweeteners. Whether or not a characteristic is more sugar-like is determined by expert sensory panel assessments of sugar and compositions comprising at least one natural and/or synthetic high-potency sweetener, both with and without a sweet taste improving composition. Such assessments quantify similarities of the characteristics of compositions comprising at least one natural and/or synthetic high-potency sweetener, both with and without a sweet taste improving composition, with those comprising sugar. Suitable procedures for determining whether a composition has a more sugar-like taste are well known in the art.
In a particular embodiment, a panel of assessors is used to measure the reduction of sweetness linger. Briefly described, a panel of assessors (generally 8 to 12 individuals) is trained to evaluate sweetness perception and measure sweetness at several time points from when the sample is initially taken into the mouth until 3 minutes after it has been expectorated. […] A decrease in score for a time point measured after the sample has cleared the mouth indicates there has been a reduction in sweetness perception.
The panel of assessors may be trained using procedures well known to those of ordinary skill in the art. In a particular embodiment, the panel of assessors may be trained using the Spectrum™ Descriptive Analysis Method (Meilgaard et al, Sensory Evaluation Techniques 3rd edition, Chapter 11). […]
Sensory evaluation of the samples prepared in Example Set G was carried out under the following protocol, similar to that described hereinabove. […] Immediately upon sensing maximal sweetness, the sample was expectorated, the mouth was rinsed with water and the rate of sweetness decay (“Sweetness Linger”) was measured, where attention was focused on the sweetness 3-4 min after the water rinse. […]

rebaudioside A
5: sweetness linger (400 ppm REBA in citric acid/potassium citrate composition equivalent to that in a diet lemon-lime beverage, with or without additive, scale 0-5, sweetness 3-4 min after water rinse) | sweetness linger (500 ppm REBA in carbon-treated water, phosphoric acid (75%) to pH 2.4-2.5, with or without additive, scale 0-5) | Sweetness Linger rating defined for controls (scale anchors defined by the protocol, REBA control sample at 500 ppm)
